Results reported in patent US6747061B2, “N-substituted dithiocarbamates for the treatment of biological disorders” (AtheroGenics, Inc., priority 2000, dated 2004).
Read-outs that look alike come from different tables or passages of the source.

Columns and labels:
MCF-7 = experiment: Proliferation of MCF-7 cells (FIG. 1, CellTiter96); assay type: cell-based; conditions: 10 μM dithiocarbamate + 0.1 μM 5-FU, or 0.1 μM 5-FU alone, 24-72 hours
Procedure: (§1) All primary cells and cell lines were commercially available. The transformed cell lines were grown in Dulbecco's Modified Eagle Media supplemented with 2 mM L-glutamine, 50 I.U. penicillin, 50 μg/ml streptomycin, nonessential amino acids and 10% heat-inactivated fetal bovine serum. HASM, HAEC and NHBE cells were cultured exactly as described by the commercial provider (Clonetics, San Diego, Calif.). All cell lines were grown at 37° C. in 5% CO2, with the media being changed every 48 hours.
(§2) For the experimental assays, cells were plated in 96-well plates and grown until ˜35% confluency was achieved. For the transformed cell lines, cells were plated at low density and grown for 72 hours prior to being stimulated, whereas the non-transformed cells were plated at a higher density and grown for 24 hours prior to being stimulated.
(§3) Cells were treated with dithiocarbamate (0.1-100 μM)±5FU (0.01-10 μM) and retreated after 48 hours when media was changed. Cell growth was assessed using the CellTiter96® assay system from Promega (Madison, Wis.). […]
(§4) Statistical significance was assessed using an ANOVA with the appropriate post-hoc analysis as well as Students t-tests. *=p<0.05 when compared to control-treated (DMSO) cells. #=p<0.05 when compared to 5FU-treated cells.

T98G = experiment: Proliferation of T98G cells (FIG. 1, CellTiter96); assay type: cell-based; conditions: 10 μM dithiocarbamate + 0.1 μM 5-FU, or 0.1 μM 5-FU alone, 24-72 hours
Procedure: as §1, §2, §3, §4

HAEC = experiment: Proliferation of non-transformed HAEC cells (FIG. 1, CellTiter96); assay type: cell-based, Human; conditions: 10 μM dithiocarbamate + 0.1 μM 5-FU, or 0.1 μM 5-FU alone, 24-72 hours
Procedure: as §1, §2, §3, §4

[1] = tested on: SNU-C5 colorectal carcinoma cells; experiment: Anti-proliferative effect on SNU-C5 cells (CellTiter96); assay type: cell-based; conditions: 5-FU alone 1 μM, read-out: proliferation, percent of control
Procedure: as §1, §2
(§5) Cells were treated with dithiocarbamate (0.1-100 μM)±5FU (0.01-10 μM) and retreated after 48 hours when media was changed. Cell growth was assessed using the CellTiter96® assay system from Promega (Madison, Wis.). Each experimental condition was performed in triplicate or quadruplicate, with the number of experiments for each cell line being three.
as §4

NHBE = experiment: Proliferation of non-transformed NHBE cells (FIG. 1, CellTiter96); assay type: cell-based, Human; conditions: 10 μM dithiocarbamate + 0.1 μM 5-FU, or 0.1 μM 5-FU alone, 24-72 hours
Procedure: as §1, §2, §3, §4

HeLa = experiment: Proliferation of HeLa cells (FIG. 1, CellTiter96); assay type: cell-based; conditions: 10 μM dithiocarbamate + 0.1 μM 5-FU, or 0.1 μM 5-FU alone, 24-72 hours
Procedure: as §1, §2, §3, §4

HASM = experiment: Proliferation of non-transformed HASM cells (FIG. 1, CellTiter96); assay type: cell-based, Human; conditions: 10 μM dithiocarbamate + 0.1 μM 5-FU, or 0.1 μM 5-FU alone, 24-72 hours
Procedure: as §1, §2, §3, §4

H1299 = experiment: Proliferation of H1299 cells (FIG. 1, CellTiter96); assay type: cell-based; conditions: 10 μM dithiocarbamate + 0.1 μM 5-FU, or 0.1 μM 5-FU alone, 24-72 hours
Procedure: as §1, §2, §3, §4

Saos-2 = experiment: Proliferation of Saos-2 cells (FIG. 1, CellTiter96); assay type: cell-based; conditions: 10 μM dithiocarbamate + 0.1 μM 5-FU, or 0.1 μM 5-FU alone, 24-72 hours
Procedure: as §1, §2, §3, §4

[2] = tested on: DLD-1 colorectal carcinoma cells; experiment: Anti-proliferative effect on DLD-1 cells (CellTiter96); assay type: cell-based; conditions: Homo sapiens, 5-FU alone 1 μM, read-out: proliferation, percent of control
Procedure: as §1, §2, §5, §4

[3] = tested on: cytokine induced oxidatively modified proteins in NHBE cells; experiment: OxyBlot oxidized protein analysis; assay type: cell-based, human; conditions: TNF + IL-4, FIG. 4
Procedure: The OxyBlot™ assay (Intergen) detects oxidative modification of proteins by reactive oxygen species such as hydroxynonenal. As a consequence of the modification, carbonyl groups are introduced into protein side chains by a site-specific mechanism. OxyBlot™ detects these carbonyl groups, which is a hallmark of the oxidation status of proteins.
Normal human bronchial epithelial cells (NHBE) were purchased from Clonetics. They were cultured in BEGM (Clonetics) media without retinoic acid. In a typical experiment, the cells were seeded in 24-well plates. Media was changed to BEGM without retinoic acid (RA) and hydrocortisone (HC) 24 hr before dosing. Cells were then exposed to compounds in fresh BEGM without RA and HC for 20 min at 37° C., subsequently stimulated with TNF (10 ng/ml) and IL-4 (20 ng/ml) purchased from Boehringer Mannheim for another 20 min at 37° C. All compounds were dissolved in DMSO and the final concentration of DMSO was 0.2%.
Cells were washed 3 times with cold PBS, and lysed in 100 μl/well 1×RIPA buffer (25 mM Tris pH7.6, 150 mM NaCl, 2 mM EDTA, 1% IGEPAC, 0.5% deoxycholate, 0.1% SDS), 50 mM DTT, 1 mM PMSF, […] leupeptin, 1 μl/ml aprotinin. The cell lysates were clarified by centrifugation. 5 μl of the lysates were mixed with 5 μl 12% SDS (OxyBlot™ kit) and 10 μl of 1×2,4-Dintirophenylhydrazin (DNPH) (OxyBlot™ kit). […]

Structure (SMILES)	inhibition of proliferation (MCF-7)	inhibition of proliferation (T98G)	inhibition of proliferation (HAEC)	activity at 1 µM ([1]; 24 HOURS) [%]	activity at 1 µM ([1]; 48 HOURS) [%]	activity at 1 µM ([1]; 72 HOURS) [%]	inhibition of proliferation (NHBE)	inhibition of proliferation (HeLa)	inhibition of proliferation (HASM)	inhibition of proliferation (H1299)	inhibition of proliferation (Saos-2)	activity at 1 µM ([2]; 24 HOURS) [%]	activity at 1 µM ([2]; 48 HOURS) [%]	activity at 1 µM ([2]; 72 HOURS) [%]	inhibition of cytokine induced oxidatively modified proteins [3]
O=c1[nH]cc(F)c(=O)[nH]1 [5-FU, 5-fluorouracil]	no significant inhibition of proliferation	no significant inhibition of proliferation	no significant inhibition of proliferation	109	85.5	86.1	no significant inhibition of proliferation	no significant inhibition of proliferation	no significant inhibition of proliferation	no significant inhibition of proliferation	no significant inhibition of proliferation	90.8	85.8	113	–
S=C(S)N1CCCC1 [PTDC, pyrrolidine dithiocarbamate, reference compound]	–	–	–	–	–	–	–	–	–	–	–	–	–	–	inhibit
